Experimental data as given in ChEMBL document CHEMBL1201862, “PubChem BioAssay data set” (2004).
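Each compound was tested at five concentrations against cells in 96-well plates for 48 hours. Abbreviation: GI50, concentration required for 50% inhibition of growth.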 The source made the active and inactive calls. Cut-off read from the data, not from the text of the source: active = GI50 up to about 1.1 µM and inactive = higher.

Legend:
Test in all cases: NCI anticancer screen, dose series, 48 h
[1] = test system: A498
[2] = test system: HOP-92
[3] = test system: SF-295
[4] = test system: NCI-H226
[5] = test system: SNB-78
[6] = test system: HCT-15
[7] = test system: KM12
[8] = test system: HOP-62
[9] = test system: LXFL 529
[10] = test system: SF-539
[11] = test system: SW-620
[12] = test system: M14
[13] = test system: SR
[14] = test system: XF498
[15] = test system: SK-MEL-2
[16] = test system: UACC-62
[17] = test system: CAKI-1
[18] = test system: K562
[19] = test system: RXF 393
[20] = test system: MOLT-4
[21] = test system: M19-MEL
[22] = test system: HOP-18
[23] = test system: HCT-116
[24] = test system: HT-29
[25] = test system: NCI-H460
[26] = test system: U-251
[27] = test system: SNB-75
[28] = test system: SN12C
[29] = test system: EKVX
[30] = test system: KM-20L2
[31] = test system: HL-60
[32] = test system: SK-MEL-28
[33] = test system: UO-31
[34] = test system: SF-268
[35] = test system: OVCAR-4
[36] = test system: 786-0
[37] = test system: A549
[38] = test system: SNB-19
[39] = test system: OVCAR-8
[40] = test system: RPMI-8226
[41] = test system: OVCAR-5
[42] = test system: OVCAR-3
[43] = test system: DMS-114
[44] = test system: CCRF-CEM
[45] = test system: ACHN
[46] = test system: HCC 2998
[47] = test system: COLO 205
[48] = test system: IGROV-1
[49] = test system: Malme-3M
[50] = test system: LOX IMVI
[51] = test system: TK-10
[52] = test system: SK-MEL-5
[53] = test system: MCF7
[54] = test system: DMS-273
[55] = test system: UACC-257
[56] = test system: NCI-H522
[57] = test system: NCI-H23
[58] = test system: DLD-1
[59] = test system: NCI/ADR-RES
[60] = test system: SK-OV-3

In the case of `CCC12C=CCN3CCC4(c5cc(C6(C(=O)OC)CCCCCc7c6[nH]c6ccccc76)c(OC)cc5N(C)C4C(O)(C(=O)OC)C1OC(C)=O)C32` (centres undefined), the GI50 [1] is reported as 2.4 µM (inactive), the GI50 [2] is reported as 2.26 µM (inactive) and the GI50 [3] is reported as 1.91 µM (inactive). For the same compound, the GI50 [4] was 2.64 µM (inactive), the GI50 [5] was 2.78 µM (inactive) and the GI50 [6] was 2.1 µM. For the same compound, the GI50 [7] was 2.55 µM (inactive), the GI50 [8] was 3.72 µM (inactive) and the GI50 [9] was 1.84 µM (inactive). The GI50 [10] was 2.25 µM (inactive), the GI50 [11] was 3.3 µM (inactive) and the GI50 [12] was 2.64 µM (inactive). The GI50 [13] was 2.54 µM (inactive), the GI50 [14] was 2.33 µM (inactive) and the GI50 [15] was 1.74 µM (inactive). For the same compound, the GI50 [16] was 1.64 µM (inactive), the GI50 [17] was 2.7 µM (inactive) and the GI50 [18] was 2.82 µM (inactive). The GI50 [19] was 1.64 µM (inactive), the GI50 [20] was 2.14 µM (inactive) and the GI50 [21] was 2.51 µM (inactive). The GI50 [22] was 2.34 µM (inactive), the GI50 [23] was 2.9 µM (inactive) and the GI50 [24] was 0.562 µM (active). The GI50 [25] was 2.31 µM (inactive), the GI50 [26] was 2.08 µM (inactive) and the GI50 [27] was 2.3 µM (inactive). The GI50 [28] was 3.63 µM (inactive), the GI50 [29] was 3.57 µM (inactive) and the GI50 [30] was 2.03 µM (inactive). The GI50 [31] was 2.29 µM (inactive), the GI50 [32] was 2.23 µM (inactive) and the GI50 [33] was 2 µM (inactive). For the same compound, the GI50 [34] was 2.95 µM (inactive), the GI50 [35] was 2.95 µM (inactive) and the GI50 [36] was 2.29 µM (inactive). The GI50 [37] was 3.02 µM (inactive), the GI50 [38] was 3.15 µM (inactive) and the GI50 [39] was 3.06 µM (inactive). The GI50 [40] was 2.47 µM (inactive), the GI50 [41] was 1.9 µM (inactive) and the GI50 [42] was 3.83 µM (inactive). For the same compound, the GI50 [43] was 2.38 µM (inactive), the GI50 [44] was 1.97 µM (inactive) and the GI50 [45] was 1.61 µM (inactive). For the same compound, the GI50 [46] was 2.04 µM (inactive), the GI50 [47] was 2.93 µM (inactive) and the GI50 [48] was 2.16 µM (inactive). For the same compound, the GI50 [49] was 1.87 µM (inactive), the GI50 [50] was 1.61 µM (inactive) and the GI50 [51] was 2.39 µM (inactive).

For `COC(=O)C1OC(Oc2cc(O)c3c(=O)cc(-c4ccc(O)cc4)oc3c2)C(O)C(O)C1O` (centres undefined), the GI50 [52] was > 100 µM (inactive), the GI50 [1] was > 100 µM (inactive) and the GI50 [2] was > 100 µM (inactive). The GI50 [3] was > 100 µM (inactive), the GI50 [4] was > 100 µM (inactive) and the GI50 [5] was > 100 µM (inactive). For the same compound, the GI50 [53] was > 100 µM (inactive), the GI50 [6] was > 100 µM and the GI50 [7] was > 100 µM (inactive). The GI50 [8] was > 100 µM (inactive), the GI50 [10] was > 100 µM (inactive) and the GI50 [11] was > 100 µM (inactive). The GI50 [14] was > 100 µM (inactive), the GI50 [15] was > 100 µM (inactive) and the GI50 [16] was > 100 µM (inactive). The GI50 [17] was > 100 µM (inactive), the GI50 [18] was > 100 µM (inactive) and the GI50 [19] was > 100 µM (inactive). For the same compound, the GI50 [20] was > 100 µM (inactive), the GI50 [21] was > 100 µM (inactive) and the GI50 [22] was > 100 µM (inactive). The GI50 [23] was > 100 µM (inactive), the GI50 [54] was > 100 µM (inactive) and the GI50 [24] was > 100 µM (inactive). For the same compound, the GI50 [55] was > 100 µM (inactive), the GI50 [56] was > 100 µM (inactive) and the GI50 [25] was > 100 µM (inactive). For the same compound, the GI50 [26] was > 100 µM (inactive), the GI50 [27] was > 100 µM (inactive) and the GI50 [57] was > 100 µM (inactive). For the same compound, the GI50 [28] was > 100 µM (inactive), the GI50 [29] was > 100 µM (inactive) and the GI50 [30] was > 100 µM (inactive). The GI50 [31] was > 100 µM (inactive), the GI50 [32] was > 100 µM (inactive) and the GI50 [33] was > 100 µM (inactive). For the same compound, the GI50 [58] was > 100 µM (inactive), the GI50 [34] was > 100 µM (inactive) and the GI50 [59] was > 100 µM (inactive). The GI50 [35] was > 100 µM (inactive), the GI50 [37] was > 100 µM (inactive) and the GI50 [38] was > 100 µM (inactive). For the same compound, the GI50 [39] was > 100 µM (inactive), the GI50 [40] was > 100 µM (inactive) and the GI50 [41] was > 100 µM (inactive). For the same compound, the GI50 [42] was > 100 µM (inactive), the GI50 [60] was > 100 µM (inactive) and the GI50 [43] was > 100 µM (inactive). The GI50 [44] was > 100 µM (inactive), the GI50 [46] was > 100 µM (inactive) and the GI50 [47] was > 100 µM (inactive). The GI50 [48] was > 100 µM (inactive), the GI50 [49] was > 100 µM (inactive) and the GI50 [50] was > 100 µM (inactive).

`CCCCC1=C(Br)C(=C(Br)Br)OC1=O` was tested, and the GI50 [52] was 3.71 µM (inactive), the GI50 [1] was 15.2 µM (inactive) and the GI50 [2] was 11 µM (inactive). The GI50 [3] was 10.6 µM (inactive), the GI50 [4] was 4 µM (inactive) and the GI50 [5] was 6.01 µM (inactive). For the same compound, the GI50 [53] was 3.54 µM (inactive), the GI50 [6] was 2.2 µM and the GI50 [7] was 3.29 µM (inactive). The GI50 [8] was 7.96 µM (inactive), the GI50 [10] was 3.26 µM (inactive) and the GI50 [11] was 3.34 µM (inactive). For the same compound, the GI50 [14] was 7.62 µM (inactive), the GI50 [15] was 2.79 µM (inactive) and the GI50 [16] was 2.42 µM (inactive). The GI50 [17] was 2.15 µM (inactive), the GI50 [18] was 3.32 µM (inactive) and the GI50 [19] was 2.09 µM (inactive). The GI50 [20] was 1.83 µM (inactive), the GI50 [21] was 2.74 µM (inactive) and the GI50 [22] was 3.94 µM (inactive). For the same compound, the GI50 [23] was 3.02 µM (inactive), the GI50 [54] was 2.74 µM (inactive) and the GI50 [24] was 3.08 µM (inactive). The GI50 [55] was 2.48 µM (inactive), the GI50 [56] was 1.86 µM (inactive) and the GI50 [25] was 4.56 µM (inactive). For the same compound, the GI50 [26] was 5.47 µM (inactive), the GI50 [27] was 5.64 µM (inactive) and the GI50 [57] was 4.37 µM (inactive). The GI50 [28] was 2.75 µM (inactive), the GI50 [29] was 2.49 µM (inactive) and the GI50 [30] was 8.65 µM (inactive). The GI50 [31] was 1.85 µM (inactive), the GI50 [32] was 2.78 µM (inactive) and the GI50 [33] was 11.9 µM (inactive). The GI50 [58] was 1.9 µM (inactive), the GI50 [34] was 2.61 µM (inactive) and the GI50 [59] was 4.14 µM (inactive). The GI50 [35] was 1.79 µM (inactive), the GI50 [37] was 17.1 µM (inactive) and the GI50 [38] was 7.89 µM (inactive). For the same compound, the GI50 [39] was 3.17 µM (inactive), the GI50 [40] was 0.379 µM (active) and the GI50 [41] was 16.5 µM (inactive). For the same compound, the GI50 [42] was 2.55 µM (inactive), the GI50 [60] was 17.6 µM (inactive) and the GI50 [43] was 2.07 µM (inactive). For the same compound, the GI50 [44] was 2.45 µM (inactive), the GI50 [46] was 6.31 µM (inactive) and the GI50 [47] was 3.01 µM (inactive). The GI50 [48] was 2.25 µM (inactive), the GI50 [49] was 2.25 µM (inactive) and the GI50 [50] was 1.87 µM (inactive).
